Patent US20230357134A1, “AGENTS FOR USE IN THE TREATMENT OF AMYLOIDOSIS” (UCL BUSINESS LTD, priority 2020, published 2023)

How the values were obtained:
[1] = molecular target: T1, recombinant Val122Ile TTR (Homo sapiens, UniProt P02766, V142I); experiment: Mechano-enzymatic fibrillogenesis, TTR aggregation by turbidity at 400 nm; type: biochemical; conditions: equimolar ligand, Val122Ile TTR 9 μM, trypsin, 96 h, 100 % = protein without ligand, mean (SD)
T1 construct: the non-covalently associated protomers, of mass 13,761, each contain 127 residues; His6 (N); TEV cleavage site (N); made in house; host or cells: E. coli BL21 (DE3)
Experimental: (§1) Briefly, fibrillogenesis of recombinant Val122Ile TTR at 0.5 mg/ml (9 μM) in PBS, pH 7.4 was carried out in glass vials stirred at 1,400 rpm (IKA magnetic stirrer) and 37° C. in the presence and in the absence of trypsin (5 ng/μl). […] Each ligand was tested at 4 different concentrations (4.5, 9, 18, 36 μM respectively) corresponding to the following drug/TTR molar ratios of 0.5:1, 1:1, 2:1 and 4:1. Several dilutions of the drug stock solutions were made in order to add the same volume of DMSO to each sample. Control samples without drug were added with the same volume of DMSO only. To allow complete binding of ligand by TTR each sample was incubated for 30 min at 37° C. before addition of trypsin. Spectrophotometric turbidity at 400 nm was used to monitor fibril formation over time until it reached a plateau at 96 h. Aggregation of TTR in the presence of equimolar ligand concentrations was quantified as spectrophotometric turbidity at 400 nm as a proportion of 100% for aggregation of the protein in the absence of ligands (Table 2).

[2] = molecular target: T1, recombinant Val122Ile TTR; experiment: Mechano-enzymatic fibrillogenesis, TTR amyloid by ThT emission fluorescence; type: biochemical; conditions: equimolar ligand, 96 h pellets, normalized to 100 % without ligand, mean (SD)
Experimental: as §1
At the end of the 96 h aggregation, pellets were harvested from each protein sample by 20 min centrifugation at 11,600 g, thoroughly rinsed with PBS to remove non-bound ligand, resuspended with 100 μl PBS, pH 7.4 containing 10 μM ThT in Costar 96-well black-wall plates. Bottom fluorescence values (excitation 440 nm, emission 480 nm) were recorded using a BMG LABTECH FLUostar Omega plate reader. Each value was normalized to the ThT signal of the TTR sample without ligand (Table 2)

isolated wild type TTR = molecular target: T2, isolated wild type TTR (Homo sapiens, UniProt P02766); experiment: Displacement of 125I-T4 from isolated wild type TTR in buffer; conditions: concentration of ligand reducing binding of 125I-T4 by TTR by 50%, 125 nM TTR, pH 8.0, overnight 4° C., mean of at least 3 replicates; for IC50: read-out: D50 buffer
T2 construct: the non-covalently associated protomers, of mass 13,761, each contain 127 residues; His6 (N); TEV cleavage site (N); made in house; host or cells: E. coli BL21 (DE3)
Experimental: 3. Evaluation of Ligand Activity Based on Capacity to Displace ^125I-Thyroxine (T4) from TTR in Buffer/Human Plasma 3.1 Displacement of ^125I-T4 from Isolated Wild Type TR.
Competition of ligands with T4 for binding by TTR was assayed quantitatively by a previously described procedure (Kolstoe et al., 2010). Briefly, a solution of 125 nM TTR in 0.1 M Tris-HCl, 0.1 M NaCl and 0.001 M EDTA buffer, pH 8.0, was incubated overnight at 4° C. in the presence of 1.07 nM ^125I T4 (1,200 μCi/μg, 200 μCi/ml, Perkin Elmer) and increasing concentrations of inhibitor (0-5 μM) in 40 μl final volume. ^125I T4 bound by TTR was separated from unbound T4 by gel filtration chromatography using Micro Bio Spin 6 columns (Bio-Rad) previously equilibrated with the reaction buffer containing 1% w/v BSA. After counting with a Wizard2 gamma counter (Perkin-Elmer) for 60 s, percentage binding was plotted against the logarithm of the inhibitor concentration, and D50 (concentration of ligand reducing the binding of T4 by TTR by 50%) was determined using a four parameters dose-response curve with GraphPad Prism 5 (Table 1).

[3] = molecular target: T3, TTR in whole human plasma (Homo sapiens, UniProt P02766); experiment: Displacement of 125I-T4 from TTR in normal human plasma; type: binding; conditions: wild type TTR, 30 min 37° C. with ligand, immunoprecipitation, mean of at least 3 replicates; for IC50: read-out: D50 plasma
T3 construct: TTR in whole plasma, from individuals homozygous for wild type TTR; from tissue; host or cells: whole human plasma
Experimental: 3.2 Displacement of ^125-T4 from TTR in Normal Human Plasma.
The displacement of ^125I-T4 from TTR in whole plasma, from individuals homozygous for wild type TTR, was studied by incubating plasma with each ligand at increasing concentrations for 30 min at 37° C., further incubation with […] followed by measurement of the radioactivity in the immunoprecipitate obtained with anti-TTR antibodies. […] Percentage binding was plotted against the logarithm of the inhibitor concentration, and D50 (concentration of ligand reducing the binding of T4 by TTR by 50%) was determined using a four parameter dose-response curve with GraphPad Prism 5 (Table 1).

| SMILES | % Aggregation (Turbidity method) [1] | % Aggregation (Fluorescence method) [2] | IC50 (isolated wild type TTR) [nM] | IC50 [3] [nM] | % Aggregation (Turbidity method) ([1]; listed as T-663 (B3)) | % Aggregation (Fluorescence method) ([2]; listed as T-663 (B3)) | D50 plasma [3] | D50 buffer (isolated wild type TTR) |
| --- | --- | --- | --- | --- | --- | --- | --- | --- |
| O=C(O)CCc1cc(Cl)c(OCC[C@H](O)[C@@H](O)CCOc2c(Cl)cc(Nc3ncccc3C(=O)O)cc2Cl)c(Cl)c1 (stereo in doubt) [Compound B3A, 2-[4-[(3S,4S)-6-[4-(2-carboxyethyl)-2,6-dichloro-phenoxy]-3,4-dihydroxy-hexoxy]-3,5-dichloro-anilino]pyridine-3-carboxylicacid] | 5.76 (2.32) % | 8.63 (5.17) % | – | – | – | – | – | – |
| O=C(O)CCc1cc(Cl)c(OCCOCCCCOc2c(Cl)cc(Nc3ccccc3C(=O)O)cc2Cl)c(Cl)c1 [Compound B2, 2-[4-[4-[2-[4-(2-carboxyethyl)-2,6-dichloro-phenoxy]ethoxy]butoxy]-3,5-dichloro-anilino]benzoic acid] | 5.25 (1.68) % | 4.36 (1.51) % | 100 | 2590 | – | – | – | – |
| O=C(O)CCc1cc(Cl)c(OCC[C@@H](O)[C@H](O)CCOc2c(Cl)cc(Nc3ncccc3C(=O)O)cc2Cl)c(Cl)c1 [Compound B3, 2-[4-[(3R,4R)-6-[4-(2-carboxyethyl)-2,6-dichloro-phenoxy]-3,4-dihydroxy-hexoxy]-3,5-dichloro-anilino]pyridine-3-carboxylic acid] | – | – | 70 | 1700 | 5.11 (1.58) % | 4.49 (2.08) % | – | – |
| O=C(O)CCc1cc(Cl)c(OCC[C@H](O)[C@@H](O)CCOc2c(Cl)cc(Nc3ccccc3C(=O)O)cc2Cl)c(Cl)c1 [Compound B4, 2-[4-[(3S,4S)-6-[4-(2-carboxyethyl)-2,6-dichloro-phenoxy]-3,4-dihydroxy-hexoxy]-3,5-dichloro-anilino]benzoic acid] | 3.52 (1.14) % | 4.74 (2.93) % | 70 | 4400 | – | – | – | – |
| O=C(O)CCc1cc(Cl)c(OCC[C@@H](O)[C@H](O)CCOc2c(Cl)cc(Nc3ccccc3C(=O)O)cc2Cl)c(Cl)c1 [Compound B4A, 2-[4-[(3R,4R)-6-[4-(2-carboxyethyl)-2,6-dichloro-phenoxy]-3,4-dihydroxy-hexoxy]-3,5-dichloro-anilino]benzoicacid] | 4.99 (0.46) % | 3.30 (1.19) % | 66 | 2300 | – | – | – | – |
| O=C(O)COCCOCCOCCOc1c(Cl)cc(Nc2ccccc2C(=O)O)cc1Cl [Compound B5, 2-[4-[2-[2-[2-(carboxymethoxy)ethoxy]ethoxy]ethoxy]-3,5-dichloro-anilino]benzoic acid] | 17.3 (14.8) % | 28.8 (13.4) % | 4600 | 66400 | – | – | – | – |
| O=C(O)CCOCCCOCCCOCCCOc1c(Cl)cc(Nc2ccccc2C(=O)O)cc1Cl [Compound B6, 2-[4-[3-[3-[3-(2-carboxyethoxy)propoxy]propoxy]propoxy]-3,5-dichloro-anilino]benzoic acid] | 6.24 (1.71) % | 12.0 (4.44) % | 1170 | 39700 | – | – | – | – |
| O=C(O)CCc1cc(Cl)c(OCCCOCCCOc2c(Cl)cc(-c3nc4ccc(C(=O)O)cc4o3)cc2Cl)c(Cl)c1 [Compound B7, 2-[4-[3-[3-[4-(2-carboxyethyl)-2,6-dichloro-phenoxy]propoxy]propoxy]-3,5-dichloro-phenyl]-1,3-benzoxazole-6-carboxylicacid] | 4.99 (1.88) % | 8.23 (2.61) % | 100 | 18400 | – | – | – | – |
| O=C(O)CCc1cc(Cl)c(OCOCCCOc2c(Cl)cc(Nc3ccccc3C(=O)O)cc2Cl)c(Cl)c1 [Compound B8, 2-[4-[3-[[4-(2-carboxyethyl)-2,6-dichloro-phenoxy]methoxy]propoxy]-3,5-dichloro-anilino]benzoic acid] | 6.35 (2.73) % | 11.7 (3.67) % | 2060 | – | – | – | no binding | – |
| Cc1n[nH]c(COCCCOCCCOc2c(Cl)cc(CCC(=O)O)cc2Cl)c1CCCOc1cc(C(=O)O)ccc1F [Compound B9, 3-[3-[5-[3-[3-[4-(2-carboxyethyl)-2,6-dichloro-phenoxy]propoxy]propoxymethyl]-3-methyl-1H-pyrazol-4-yl]propoxy]-4-fluorobenzoic acid] | 17.1 (0.66) % | 9.34 (4.36) % | 1350 | – | – | – | no binding | – |
| Cc1n[nH]c(COCCCCOCCOc2c(Cl)cc(CCC(=O)O)cc2Cl)c1CCCOc1cc(C(=O)O)ccc1F [Compound B10, 3-[3-[5-[4-[2-[4-(2-carboxyethyl)-2,6-dichloro-phenoxy]ethoxy]butoxymethyl]-3-methyl-1H-pyrazol-4-yl]propoxy]-4-fluoro-benzoic acid] | 14.88 (nd) % | 16.6 (nd) % | 5600 | – | – | – | no binding | – |
| Cc1n[nH]c(COCCOCCCOc2c(Cl)cc(CCC(=O)O)cc2Cl)c1CCCOc1cc(C(=O)O)ccc1F [Compound B11, 3-[3-[5-[2-[3-[4-(2-carboxyethyl)-2,6-dichloro-phenoxy]propoxy]ethoxymethyl]-3-methyl-1H-pyrazol-4-yl]propoxy]-4-fluoro-benzoic acid] | – | – | 500 | – | – | – | no binding | – |
| O=C(O)CCc1cc(Cl)c(OCC/C=C/CCOc2c(Cl)cc(Nc3ncccc3C(=O)O)cc2Cl)c(Cl)c1 [Compound B13, (E)-2-((4-((6-(4-(2-carboxyethyl)-2,6-dichlorophenoxy)hex-3-en-1-yl)oxy)-3,5-dichlorophenyl)amino)nicotinic acid] | 5.31 (0.62) % | 9.76 (4.50) % | – | – | – | – | – | – |
| O=C(O)CCc1cc(Cl)c(OCC/C=C/CCOc2c(Cl)cc(Nc3ccccc3C(=O)O)cc2Cl)c(Cl)c1 [Compound B14, 2-[4-[(E)-6-[4-(2-carboxyethyl)-2,6-dichloro-phenoxy]hex-3-enoxy]-3,5-dichloro-anilino]benzoic acid] | 5.73 (0.50) % | 12.6 (3.17) % | – | – | – | – | – | – |
| O=C(O)CCc1cc(Cl)c(OCCCOCCCOc2ccc(-c3nc4ccc(C(=O)O)cc4o3)cc2Cl)c(Cl)c1 [Compound B15, 2-[4-[3-[3-[4-(2-carboxyethyl)-2,6-dichloro-phenoxy]propoxy]propoxy]-3-chlorophenyl]-1,3-benzoxazole-6-carboxylic acid] | 5.56 (0.75) % | 12.7 (5.73) % | 100 | 61000 | – | – | – | – |
| O=C(O)Cc1cc(Cl)c(OCCCOCCOc2c(Cl)cc(CC(=O)O)cc2Cl)c(Cl)c1 [Compound B33, reference compound] | – | 75 (30) % | – | – | – | – | – | No binding |
